Measurements: ChEMBL document CHEMBL1201862, “PubChem BioAssay data set” (2004)
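Grown in 96-well plates, cells were treated for 48 hours with each compound at five concentrations. Insufficient inhibition: endpoint recorded as highest concentration tested. Abbreviation: GI50, concentration required for 50% inhibition of growth.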 Activity calls are given as the source filed them. No stated cut-off is given here; in the data, active = GI50 up to about 1.1 µM and inactive = higher.

How the values were obtained:
Assay in all cases: DTP human tumour cell line panel, 48 h
UACC-257 = tested on: UACC-257
786-0 = tested on: 786-0
HCC 2998 = tested on: HCC 2998
M14 = tested on: M14
HL-60 = tested on: HL-60
U-251 = tested on: U-251
MOLT-4 = tested on: MOLT-4
ACHN = tested on: ACHN
DMS-114 = tested on: DMS-114
SK-MEL-2 = tested on: SK-MEL-2
Malme-3M = tested on: Malme-3M
SF-268 = tested on: SF-268
RXF 393 = tested on: RXF 393
HT-29 = tested on: HT-29
HOP-62 = tested on: HOP-62
A549 = tested on: A549
NCI-H226 = tested on: NCI-H226
SK-OV-3 = tested on: SK-OV-3
SR = tested on: SR
DU-145 = tested on: DU-145

Measured: GI50

CC1=N/C(=C\c2ccc([N+](=O)[O-])cc2)C(=O)O1
inactive: UACC-257 > 100 µM | 786-0 > 100 µM | HCC 2998 > 100 µM | M14 > 100 µM | HL-60 > 100 µM | U-251 > 100 µM | MOLT-4 > 100 µM | ACHN > 100 µM | DMS-114 > 100 µM | SK-MEL-2 > 100 µM | Malme-3M > 100 µM | SF-268 > 100 µM | RXF 393 > 100 µM | HT-29 > 100 µM | HOP-62 > 100 µM | A549 > 100 µM

CCOc1ccccc1NC(=O)C1=C(C)NC(C)=C(C(=O)Nc2ccccc2OCC)C1c1ccc(NC(C)=O)cc1
inactive: UACC-257 23.6 µM | 786-0 29.6 µM | HCC 2998 12.3 µM | NCI-H226 27.7 µM | M14 29.9 µM | SK-OV-3 11.5 µM | HL-60 31.6 µM | U-251 46.2 µM | MOLT-4 32.1 µM | ACHN 22.4 µM | DMS-114 40.2 µM | SK-MEL-2 17.9 µM | Malme-3M 33.7 µM | SF-268 56.6 µM | RXF 393 20.8 µM | HT-29 40.6 µM | HOP-62 9.66 µM | A549 46.6 µM

c1ccc(Nc2nnc(-c3nsc4ccccc34)o2)cc1
inactive: UACC-257 > 100 µM | HCC 2998 > 100 µM | M14 > 100 µM | HL-60 > 100 µM | U-251 31.4 µM | MOLT-4 > 100 µM | SR > 100 µM | ACHN 75.3 µM | DMS-114 > 100 µM | SK-MEL-2 > 100 µM | SF-268 > 100 µM | RXF 393 51.5 µM | HT-29 > 100 µM | HOP-62 32.9 µM | A549 > 100 µM

NC1c2ccccc2Nc2ccccc21
inactive: UACC-257 5.21 µM | 786-0 3.84 µM | HCC 2998 6.46 µM | NCI-H226 9.1 µM | M14 3.92 µM | SK-OV-3 4.67 µM | HL-60 4.3 µM | MOLT-4 2.94 µM | SR 2.64 µM | ACHN 4.9 µM | DMS-114 3.24 µM | SK-MEL-2 13.2 µM | Malme-3M 4.97 µM | SF-268 3.08 µM | RXF 393 6.24 µM | HT-29 4.08 µM | HOP-62 6.15 µM | A549 4.26 µM

CCCCn1cc[n+](-c2nc3ccccc3n2C)c1
inactive: UACC-257 > 100 µM | HCC 2998 > 100 µM | NCI-H226 > 100 µM | M14 > 100 µM | SK-OV-3 > 100 µM | HL-60 > 100 µM | U-251 > 100 µM | MOLT-4 > 100 µM | SR > 100 µM | ACHN > 100 µM | DMS-114 > 100 µM | SK-MEL-2 > 100 µM | Malme-3M > 100 µM | SF-268 > 10 µM | RXF 393 > 100 µM | HT-29 > 100 µM | HOP-62 > 100 µM | A549 > 100 µM

CSCSCC(CO)NC(=O)/C(C)=C\c1c(C)[nH]c(=O)[nH]c1=O (centres undefined)
inactive: UACC-257 170 µM | HCC 2998 > 250 µM | NCI-H226 > 250 µM | SK-OV-3 > 250 µM | HL-60 > 250 µM | U-251 > 250 µM | MOLT-4 > 250 µM | DMS-114 > 250 µM | SK-MEL-2 > 250 µM | Malme-3M > 250 µM | SF-268 > 250 µM | RXF 393 > 250 µM | HT-29 > 250 µM | HOP-62 > 250 µM | A549 > 250 µM

COC1=C(OC)C(=O)c2cc(SC)c(=O)c(SC)cc2C1=O
inactive: UACC-257 6.65 µM | 786-0 17.3 µM | HCC 2998 > 100 µM | NCI-H226 13.5 µM | M14 17.2 µM | SK-OV-3 36.4 µM | HL-60 1.68 µM | U-251 17.9 µM | MOLT-4 3.79 µM | SR 4.33 µM | ACHN 12.8 µM | DMS-114 3.4 µM | SK-MEL-2 3.85 µM | SF-268 12.8 µM | RXF 393 4.9 µM | HT-29 > 100 µM | HOP-62 15 µM | A549 22.6 µM

CCOC(=O)C1=C(c2ccccc2)N(C(C)=O)Cc2ccccc21
inactive: UACC-257 16.9 µM | 786-0 28.1 µM | HCC 2998 24.7 µM | NCI-H226 14.9 µM | M14 18.5 µM | SK-OV-3 29.9 µM | HL-60 11 µM | U-251 17.2 µM | MOLT-4 12 µM | SR 9.73 µM | ACHN 16.1 µM | DMS-114 10.4 µM | SK-MEL-2 17.5 µM | Malme-3M 19.1 µM | SF-268 19 µM | RXF 393 19.4 µM | HT-29 16.3 µM | HOP-62 19.6 µM | A549 18.4 µM

CC(=O)Oc1ccc(C2COc3cc(OC(C)=O)c(OC(C)=O)cc3C2)cc1 (centres undefined)
inactive: UACC-257 17.7 µM | HCC 2998 21.3 µM | NCI-H226 20.6 µM | SK-OV-3 20.7 µM | HL-60 4.11 µM | U-251 13.2 µM | MOLT-4 18.3 µM | DMS-114 4.44 µM | SK-MEL-2 14.7 µM | Malme-3M 16.5 µM | SF-268 13.7 µM | RXF 393 13.6 µM | HT-29 49.3 µM | HOP-62 25.4 µM | A549 22.3 µM

CC(C)OP(=O)(OC(C)C)c1ncn(-c2ccc([N+](=O)[O-])cc2)n1
inactive: UACC-257 > 100 µM | HCC 2998 86.7 µM | NCI-H226 > 100 µM | M14 > 100 µM | SK-OV-3 > 100 µM | HL-60 > 100 µM | U-251 > 100 µM | MOLT-4 > 100 µM | SR > 100 µM | ACHN > 100 µM | DMS-114 > 100 µM | SK-MEL-2 > 100 µM | Malme-3M > 100 µM | SF-268 > 100 µM | RXF 393 > 100 µM | HT-29 > 100 µM | HOP-62 > 100 µM | A549 > 100 µM

C/C(=C\c1ccccc1)C(=O)CCN1CCOCC1
inactive: UACC-257 15.6 µM | HCC 2998 16.7 µM | NCI-H226 > 46.1 µM | SK-OV-3 > 100 µM | HL-60 33.7 µM | U-251 18.1 µM | MOLT-4 19.1 µM | DMS-114 18.7 µM | SK-MEL-2 27.2 µM | Malme-3M 17.5 µM | SF-268 32.1 µM | RXF 393 19.7 µM | HT-29 18.8 µM | HOP-62 > 100 µM | A549 > 90.8 µM

C=CC1(c2ccc3ccccc3c2)OCC(CC)O1 (centres undefined)
inactive: UACC-257 60.4 µM | 786-0 85.9 µM | HCC 2998 94.2 µM | NCI-H226 25.5 µM | M14 61.1 µM | SK-OV-3 > 100 µM | HL-60 4.37 µM | U-251 57 µM | MOLT-4 25.6 µM | SR 19.8 µM | ACHN 66.1 µM | DU-145 > 100 µM | SK-MEL-2 15.6 µM | Malme-3M 30.5 µM | SF-268 71.6 µM | RXF 393 53.8 µM | HT-29 29.6 µM | HOP-62 1.21 µM | A549 47.9 µM
